Data taken from US12226400B2, “Neuroprotective disruption of Kv2.1/syntaxin interaction by small molecules” (UNIVERSITY OF PITTSBURGH-OF THE COMMONWEALTH SYSTEM OF …, priority 2018, dated 2025).

Columns and labels:
[1] = test system: rat primary culture cortical neurons; assay: TBOA excitotoxicity assay (LDH release) in cortical neuron cultures; assay type: cell-based
Description: All animal protocols described here and below were approved by the Institutional Animal Care and Use Committee of the University of Pittsburgh School of Medicine. Cortical neurons were prepared from embryonic day 16-17 rats of either sex. Pregnant donor rats (Charles River Laboratories) were killed by gradual CO2 inhalation, an American Veterinary Medical Association approved protocol (Leary et al., 2013). Cortices were dissociated with trypsin, and plated at 670,000 cells per well on poly-L-ornithine glass coverslips in six-well plates. Non-neuronal cell proliferation was inhibited with 1-2 μM cytosine arabinoside at 15 days in vitro (DIV). All cortical culture experiments shown here were performed on 18-25 DIV cultures.
DL-threo-β-benzyloxaspartate (TBOA; Tocris Bioscience) excitotoxicity assays were performed on cortical culture coverslips transferred into 24-well plates containing 10 mM HEPES, 0.01% bovine serum albumin (BSA)-supplemented MEM without phenol red (MHB). […] Following this exposure, external medium was collected for LDH colorimetric measurements using a toxicity kit (Sigma-Aldrich), as previously described 12. Each experiment contained three replicates of four conditions (with/without TBOA, with/without treatment). Relative toxicity was quantified as the LDH ratio of TBOA-treated over vehicle control values within each experiment. […]

NMDA receptors = assay: Fura-2 ratiometric Ca2+ imaging during NMDA exposure; assay type: cell-based, rat; conditions: 10 μM cpd5, NMDA 30 μM with 10 μM glycine; ±SEM
Description: Intracellular Ca^2+ measurements were performed on the same cortical culture preparations as above, but with 20 DIV cells plated on MatTek glass-bottom 35 mm culture dishes. At this developmental stage, neurons robustly express both GluN2A and GluN2B subunits of the NMDA receptor. Neurons were incubated with the fluorescent Ca^2+ indicator Fura-2 AM ester (5 μM; Invitrogen) with 0.02% Pluronic F-127 (Invitrogen) for 1 h at 37° C. Culture dishes were then mounted on an inverted microscope stage (Olympus) and continuously perfused with a 10 mM HEPES-buffered normal salt solution. Perfusion rate (5 ml/min) was controlled with a gravity flow and a rapid-switching local perfusion system (Warner Instruments). […] A ratio of fluorescence emission (F) at 510 nm in response to excitations at 340 and 380 nm was acquired at 1 Hz (Fambda DG-4 and 10-B SmartShutter, Sutter Instruments) via camera (ORCAER, Hamamatsu) and saved to a computer using HCImage (Hamamatsu). Baseline Ca^2+ signals were recorded for 2 min before the first application of NMDA (30 μM plus 10 μM glycine) with or without 10 μM cpd5 (Cat #MolPort-009-741-732, Molport). […] Peak increases in intracellular calcium concentration were measured by calculating F/Fo (F, peak fluorescence; Fo, average signal across 2 min baseline period). The area under the response for the first 15 min of NMDA application was also calculated.

[2] = biological target: syntaxin 1A / Kv2.1 peptides containing the C1aB region (Homo sapiens, UniProt Q16623); assay: Peptide spot array far-Western assay of syntaxin binding to Kv2.1 C1a peptides; parameters: species or system rat
Text: Peptide spot array and far-Western assay. Peptide spot arrays (15 mers) spanning the proximal C-terminus residues 451-540 of rat Kv2.1 were constructed using the Spots-synthesis method. Standard 9-fluorenylmethoxy carbonyl (Fmoc) chemistry was used to synthesize the peptides and spot them onto nitrocellulose membranes prederivatized with a polyethylene glycerol spacer (Intavis). Fmoc protected and activated amino acids were spotted in quadruplicates on 20-30 arrays on 75 by 25 mm membranes using an Intavis MultiPep robot. The nitrocellulose membrane containing the immobilized peptides were rehydrated in Tris-buffered 0.1% Tween 20 (TBST) for 10 min, and then blocked for 1 h at room temperature (RT) with gentle shaking in TBST containing 5% (w/v) nonfat dry milk and then incubated with enriched STX1A protein containing the indicated concentrations of cpd5 for 1 h at RT with gentle shaking. Next, the membrane was incubated in primary antibody for syntaxin 1A (Millipore, catalog #AB5820-50UL, RRID:AB_2216165) for 2 h at RT with gentle shaking, followed by washing with TBST. Finally, the membrane was incubated in secondary antibody (goat anti-rabbit DyLight 800, catalog #355571, Thermo Fisher Scientific) for 45 min, washed for 3 times 5 min in TBST, and visualized by infrared fluorescence (Li-Cor). Similar procedures were followed for the alanine scan study with 9-mers.

Chain of syntaxin 1A / Kv2.1 peptides containing the C1aB region (Q16623 whole entry, species assumed, the tested form may be a part): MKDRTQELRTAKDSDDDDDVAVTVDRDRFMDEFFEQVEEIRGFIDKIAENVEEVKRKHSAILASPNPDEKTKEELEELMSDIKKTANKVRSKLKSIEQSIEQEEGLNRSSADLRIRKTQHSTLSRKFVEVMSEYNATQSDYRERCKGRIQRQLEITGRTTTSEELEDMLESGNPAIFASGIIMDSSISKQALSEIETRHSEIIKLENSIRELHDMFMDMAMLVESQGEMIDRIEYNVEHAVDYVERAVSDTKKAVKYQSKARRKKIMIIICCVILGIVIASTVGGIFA

## COc1ccc(CNC(=O)Nc2cccc(-c3nc4ccccc4s3)c2)cc1OC [cpd5, 3-[3-(1,3-benzothiazol-2-yl)phenyl]-1-[(3,4-dimethoxyphenyl)methyl]urea]
[1]; 10 μM Cpd5, pre-loading 1 hr and co-incubation, overnight TBOA 60 μM
  TBOA toxicity (neuroprotection): significantly diminished TBOA toxicity
[1]; 10 μM compound, 1 hr preincubation and coincubation, 75 μM TBOA, 24 hr, mean±SEM
  relative toxicity (LDH ratio of TBOA-treated over vehicle control): 1.84±0.42
NMDA receptors
  NMDA-induced Ca2+ response, AUC treated: 104.67±1.98 % Control
  NMDA-induced Ca2+ response, F-peak treated: 101.26±1.47 % Control
[2]; Cpd5 100 μM
  reduction of Kv2.1 peptides binding to syntaxin at peak values: up to 60%
[2]; percent inhibition compared to 0.1% DMSO, variable slope fit, read-out: IC50 for inhibition of syntaxin binding to peptides 22-28 (full C1aB domain) of the peptide array
  IC50: 5.5 µM
